Laboratory results published in US20180177725A1, “CELL MEMBRANE-FORMED NANOSCALE VESICLES AND METHODS OF USING THEREOF” (WASHINGTON STATE UNIVERSITY, priority 2015, published 2018).

Test system: LPS-induced acute lung inflammation
Experiment: Mouse acute lung inflammatory (ALI) model, LPS-induced
Format: in vivo
Conditions: TPCA-1 0.33 mg/kg i.v.
Experimental: Mouse acute lung inflammatory (ALI) model: CD1 male mice were utilized. ALI was induced by intracheal spray of LPS (10 mg/kg) using a Model ICA-IC-M MicroSprayer Aerosolizer (Pen-Century). Approximately 3 hours after LPS was challenged, mice were intravenously injected with HBSS, free drug (TPCA-1), TPCA-1 loaded erythrocyte vesicles and TPCA-1 loaded HL 60 vesicles at two doses of 0.33 and 1 mg/ kg.
Bronchoalveolar lavage fluid collection and cell count: At 13 hours post-LPS administration, mice were anesthetized with an i.p. injection of ketamine and xylazine mixture. The trachea was cannulated, and 1 ml HBSS was infused intratracheally and withdrawn to obtain lavage fluid. This procedure was repeated twice. […] The total cell number was determined with a hemocytometer. […] The percentages of neutrophils were determined after counting 200 cells in randomly selected fields.
Cytokine generation: Cytokine levels in the BAL were determined using commercial ELISA kits for TNF-α and IL-6 (Biolegend, San Diego, Calif.) according to the manufacturer's instructions. […]
Measurement of lung vascular permeability: The permeability was evaluated via the larvage protein content change. The total protein concentrations were determined using a BCA protein assay kit (Thermo scientific, Rockford, Ill.).

NC(=O)Nc1sc(-c2ccc(F)cc2)cc1C(N)=O [TPCA-1, 2-[(Aminocarbonyl)amino]-5-(4-fluorophenyl)-3-thiophenecarboxamide]
therapeutic benefit on neutrophil infiltration at low dose: rarely showed this benefit
